Target: T1, Pleckstrin Homology Domain‐Interacting Protein, second bromodomain (PHIP(2)) (Homo sapiens, UniProt Q8WWQ0)
T1 construct: second bromodomain (PHIP(2))
Test: grating-coupled interferometry (waveRAPID) Kd; crystal structure; AlphaScreen IC50
Format: binding

A Kd of 50 µM was found for O=C(Nc1nc2ccccc2o1)N1CCN(C(=O)c2ccco2)CC1 [PHIP-AM1-20, PHIP‐AM1‐20] in this work.
